The values below come from patent US20210300924A1, “5-[6-[[3-(4,5,6,7-TETRAHYDROPYRAZOLO[4,3-C]PYRIDIN-1-YL)AZETIDIN-1-YL]METHYL]MORPHOLIN-4-YL]QUINOLINE-8-CARBONITRILE DERIVATIVES AND SIMILAR COMPOUNDS AS TLR7-9 ANTAGONISTS FOR TREATING SYSTEMIC LUPUS ERYTHEMATOSUS” (Hoffmann-La Roche Inc., priority 2018, published 2021).

Each structure is given as a SMILES string.

The target of the assay is T1, human TLR8 (Homo sapiens, UniProt Q9NR97).
T1 construct: host or cells: HEK293 (HEK-Blue hTLR8)
T1 sequence (Q9NR97 27-1041): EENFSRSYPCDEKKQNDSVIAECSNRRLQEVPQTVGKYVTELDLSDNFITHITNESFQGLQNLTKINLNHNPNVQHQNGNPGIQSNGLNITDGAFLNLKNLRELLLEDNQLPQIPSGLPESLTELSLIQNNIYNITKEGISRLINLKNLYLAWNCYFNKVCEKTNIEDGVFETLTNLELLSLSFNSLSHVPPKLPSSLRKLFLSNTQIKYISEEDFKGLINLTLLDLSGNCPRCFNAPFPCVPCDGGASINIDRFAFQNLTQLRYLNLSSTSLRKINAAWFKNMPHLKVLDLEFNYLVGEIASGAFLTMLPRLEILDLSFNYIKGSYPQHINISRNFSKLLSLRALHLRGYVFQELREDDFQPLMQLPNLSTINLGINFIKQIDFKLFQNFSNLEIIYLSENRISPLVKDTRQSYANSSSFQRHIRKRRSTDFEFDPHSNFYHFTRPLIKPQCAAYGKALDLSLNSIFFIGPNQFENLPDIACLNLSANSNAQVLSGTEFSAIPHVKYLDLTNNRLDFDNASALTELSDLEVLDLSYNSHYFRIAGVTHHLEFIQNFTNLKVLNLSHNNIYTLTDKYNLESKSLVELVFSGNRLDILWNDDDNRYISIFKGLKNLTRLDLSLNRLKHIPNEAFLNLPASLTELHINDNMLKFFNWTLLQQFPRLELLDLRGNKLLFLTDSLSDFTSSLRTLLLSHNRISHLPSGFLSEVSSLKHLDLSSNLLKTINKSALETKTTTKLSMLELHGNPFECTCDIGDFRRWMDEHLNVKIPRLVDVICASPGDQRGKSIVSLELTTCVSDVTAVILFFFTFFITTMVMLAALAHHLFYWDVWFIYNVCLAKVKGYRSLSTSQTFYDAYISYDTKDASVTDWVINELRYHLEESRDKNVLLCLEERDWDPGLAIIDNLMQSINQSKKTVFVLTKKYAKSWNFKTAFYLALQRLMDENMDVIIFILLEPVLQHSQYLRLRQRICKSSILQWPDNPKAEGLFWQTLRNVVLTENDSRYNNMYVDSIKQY
In words: HEK293-Blue-hTLR-8 cells assay. The format is cell-based. The conditions noted are these: HEK293-Blue-hTLR8 cells, R848 stimulation, 20 hrs, SEAP reporter; read-out: HEK/hTLR8 IC50. The text has this:
A stable HEK293-Blue-hTLR-8 cell line was purchased from InvivoGen (Cat. #: hkb-htlr8, San Diego, Calif., USA). These cells were originally designed for studying the stimulation of human TLR8 by monitoring the activation of NF-κB. A SEAP (secreted embryonic alkaline phosphatase) reporter gene was placed under the control of the IFN-β minimal promoter fused to five NF-κB and AP-1-binding sites. The SEAP was induced by activating NF-κB and AP-1 via stimulating HEK-Blue hTLR8 cells with TLR8 ligands. Therefore the reporter expression was declined by TLR8 antagonist under the stimulation of a ligand, such as R848, for incubation of 20 hrs. The cell culture supernatant SEAP reporter activity was determined using QUANTI-Blue™ kit (Cat. #: rep-qb1, Invivogen, San Diego, Ca, USA) at a wavelength of 640 nm, a detection medium that turns purple or blue in the presence of alkaline phosphatase.
HEK293-Blue-hTLR8 cells were incubated at a density of 250,000-450,000 cells/mL in a volume of 170 μL in a 96-well plate in Dulbecco's Modified Eagle's medium (DMEM) containing 4.5 g/L glucose, 50 U/mL penicillin, […], […], 2 mM L-glutamine, 10% (v/v) heat-inactivated fetal bovine serum with addition of 20 μL test compound in a serial dilution in the presence of final DMSO at 1% and 10 μL of 60 uM R848 in above DMEM, perform incubation under 37° C. in a CO2 incubator for 20 hrs. Then 20 μL of the supernatant from each well was incubated with […] Quanti-blue substrate solution at 37° C. for 2 hrs and the absorbance was read at 620-655 nm using a spectrophotometer. The signaling pathway that TLR8 activation leads to downstream NF-κB activation has been widely accepted, and therefore similar reporter assay was modified for evaluating TLR8 antagonist.
Consider `Cc1c2c(nn1C1CN(C[C@H]3CN(c4ccc(C#N)c5ncccc45)C[C@@H](C)O3)C1)CCN(C)C2` [Example 15, 5-[(2S,6R)-2-[[3-(3,5-dimethyl-6,7-dihydro-4H-pyrazolo[4,3-c]pyridin-2-yl)azetidin-1-yl]methyl]-6-methyl-morpholin-4-yl]quinoline-8-carbonitrile], for which the IC50 is 9 nM. In the case of `C[C@@H]1Cc2c(cnn2C2CN(C[C@H]3CN(c4ccc(C#N)c5ncccc45)C[C@@H](C)O3)C2)CN1` [Example 16, 5-[(2R,6S)-2-methyl-6-[[3-[(6R)-6-methyl-4,5,6,7-tetrahydropyrazolo[4,3-c]pyridin-1-yl]azetidin-1-yl]methyl]morpholin-4-yl]quinoline-8-carbonitrile], the IC50 was found to be 16 nM. Under `C[C@@H]1Cc2nn(C3CN(C[C@H]4CN(c5ccc(C#N)c6ncccc56)C[C@@H](C)O4)C3)cc2CN1` [Example 17, 5-[(2R,6S)-2-methyl-6-[[3-[(6R)-6-methyl-4,5,6,7-tetrahydropyrazolo[4,3-c]pyridin-2-yl]azetidin-1-yl]methyl]morpholin-4-yl]quinoline-8-carbonitrile] stands 18 nM. As for `C[C@@H]1CN(c2ccc(C#N)c3ncccc23)C[C@H](CN2CC(n3ncc4c3C[C@H](C)NC4)C2)O1` [Example 18, 5-[(2R,6S)-2-methyl-6-[[3-[(6S)-6-methyl-4,5,6,7-tetrahydropyrazolo[4,3-c]pyridin-1-yl]azetidin-1-yl]methyl]morpholin-4-yl]quinoline-8-carbonitrile], the IC50 amounted to 19 nM. Under `C[C@@H]1CN(c2ccc(C#N)c3ncccc23)C[C@H](CN2CC(n3cc4c(n3)C[C@H](C)NC4)C2)O1` [Example 19, 5-[(2R,6S)-2-methyl-6-[[3-[(6S)-6-methyl-4,5,6,7-tetrahydropyrazolo[4,3-c]pyridin-2-yl]azetidin-1-yl]methyl]morpholin-4-yl]quinoline-8-carbonitrile] stands 22 nM.

On to `C[C@@H]1CN(c2ccc(C#N)c3ncccc23)C[C@H](CN2CC(n3ncc4c3CCN[C@@H]4C)C2)O1` [Example 20, 5-[(2R,6S)-2-methyl-6-[[3-[(4R)-4-methyl-4,5,6,7-tetrahydropyrazolo[4,3-c]pyridin-1-yl]azetidin-1-yl]methyl]morpholin-4-yl]quinoline-8-carbonitrile], for which the IC50 was determined as 28 nM.

Turning to `C[C@@H]1CN(c2ccc(C#N)c3ncccc23)C[C@H](CN2CC(n3cc4c(n3)CCN[C@@H]4C)C2)O1` [Example 21, 5-[(2R,6S)-2-methyl-6-[[3-[(4R)-4-methyl-4,5,6,7-tetrahydropyrazolo[4,3-c]pyridin-2-yl]azetidin-1-yl]methyl]morpholin-4-yl]quinoline-8-carbonitrile], the IC50 was found to be 72 nM. Under `C[C@@H]1CN(c2ccc(C#N)c3ncccc23)C[C@H](CN2CC(n3ncc4c3CCN[C@H]4C)C2)O1` [Example 22, 5-[(2R,6S)-2-methyl-6-[[3-[(4S)-4-methyl-4,5,6,7-tetrahydropyrazolo[4,3-c]pyridin-1-yl]azetidin-1-yl]methyl]morpholin-4-yl]quinoline-8-carbonitrile] stands 37 nM; under `C[C@@H]1CN(c2ccc(C#N)c3ncccc23)C[C@H](CN2CC(n3cc4c(n3)CCN[C@H]4C)C2)O1` [Example 23, 5-[(2R,6S)-2-methyl-6-[[3-[(4S)-4-methyl-4,5,6,7-tetrahydropyrazolo[4,3-c]pyridin-2-yl]azetidin-1-yl]methyl]morpholin-4-yl]quinoline-8-carbonitrile], 44 nM. `C[C@@H]1CN(c2ccc(C#N)c3ncccc23)C[C@H](CN2CC(n3cc4c(n3)C(C)(C)CNC4)C2)O1` [Example 24, 5-[(2S,6R)-2-[[3-(7,7-dimethyl-5,6-dihydro-4H-pyrazolo[4,3-c]pyridin-2-yl)azetidin-1-yl]methyl]-6-methyl-morpholin-4-yl]quinoline-8-carbonitrile]: the IC50 is 14 nM.
